The text below walks through data of ChEMBL document CHEMBL5052843, “Inhibitors of apol1 and methods of using same” (2020).

Bounds are passed on as bounds.

For orientation: IC50 means the concentration that inhibits the measured activity by half.

In the assay the target is Apolipoprotein L1 (Homo sapiens, UniProt O14791). Nature of the assay: Inhibition of APOL1 G1 variant in human HEK293-T-REx cells measured by Thallium assay. It is filed as cell-based.
As to `Cc1cccc2c(CCC(=O)N[C@@H]3C(=O)NC[C@H]3O)c(-c3ccccc3)[nH]c12`, the half-inhibitory concentration (IC50) was below 250 nM.

For `O=C(CCc1c(-c2ccc(F)cc2)[nH]c2c(F)c(F)c(F)cc12)N[C@@H]1C(=O)NC[C@H]1O`, the IC50 is below 250 nM. In the case of `COc1cc(F)cc2c(CCC(=O)N[C@H]3CCNC3=O)c(-c3ccc(F)cc3)[nH]c12`, the IC50 amounted to 250 nM. `O=C(CCc1c(-c2ccc(F)cc2)[nH]c2c(F)cc(Cl)cc12)N[C@H]1CCNC1=O` had an IC50 below 250 nM. The same measure for `COc1ccc2[nH]c(-c3ccc(F)cc3)c(CCC(=O)N[C@H]3CCNC3=O)c2c1`: above 1000 nM. Compound `O=C(CCc1c(-c2ccccc2)[nH]c2c(F)cccc12)N[C@H]1CCNC1=O` displayed a half-inhibitory concentration (IC50) of 250 nM. The same measure for `CC(CC(=O)N[C@H]1CCNC1=O)c1c(-c2ccc(F)cc2)[nH]c2c(F)cc(F)cc12` (stereo partly specified): above 1000 nM; for `O=C(N[C@H]1CCNC1=O)[C@H](O)Cc1c(-c2ccccc2)[nH]c2c(F)cc(F)cc12`: above 1000 nM. As to `O=C(CCc1c(-c2ccc(F)cc2)[nH]c2cc(O)ccc12)N[C@H]1C(=O)NC[C@@H]1O`, the IC50 is above 1000 nM. `O=C(CCc1c(-c2ccccc2)[nH]c2c(C3=CCOC3)cccc12)N[C@@H]1C(=O)NC[C@H]1O` came in with an IC50 above 1000 nM. The result for `CC(CC(=O)N[C@@H]1C(=O)NC[C@H]1O)c1c(-c2ccc(F)cc2)[nH]c2c(F)cc(F)cc12` (stereo partly specified) reads above 1000 nM; that for `C[C@@H](Cc1c(-c2ccc(F)cc2)[nH]c2c(F)cc(F)cc12)C(=O)N[C@@H]1C(=O)NC[C@H]1O`, 250 nM; that for `O=C(CSc1c(-c2ccc(F)cc2)[nH]c2ccccc12)N[C@@H]1C(=O)NC[C@H]1O`, below 250 nM. `O=C(CCc1c(-c2ccc(F)cc2)[nH]c2c(F)cc(F)cc12)N[C@H]1C(=O)NC[C@@H]1O` registered an IC50 of 250 nM.

In turn, `O=C(CCc1c(-c2ccc(OC(F)F)cc2)[nH]c2ccccc12)N[C@@H]1C(=O)NC[C@H]1O` gave an IC50 below 250 nM. The result for `O=C(CCc1c(-c2ccc(F)cc2)[nH]c2c(F)cc(F)cc12)NC1CC2(CC2)NC1=O` (stereo unspecified) reads above 1000 nM. The compound `O=C(CCc1c(-c2ccc(F)cc2)[nH]c2c(F)cc(F)cc12)N[C@H]1C[C@@H](CF)NC1=O` had an IC50 above 1000 nM. For the compound `O=C(CCc1c(-c2ccc(F)cc2)[nH]c2ccc(Cl)cc12)N[C@@H]1C(=O)NC[C@H]1O`, the IC50 was below 250 nM. Compound `Cc1c(F)ccc2c(CCC(=O)N[C@@H]3C(=O)NC[C@H]3O)c(-c3ccc(F)cc3)[nH]c12` registered an IC50 below 250 nM. The same measure for `O=C(CCc1c(-c2ccc(F)cc2)[nH]c2cc(F)c(F)cc12)N[C@@H]1C(=O)NC[C@H]1O`: below 250 nM. The result for `O=C(N[C@@H]1C(=O)NC[C@H]1O)[C@H](O)Cc1c(-c2ccc(F)cc2)[nH]c2c(F)cc(F)cc12` reads above 1000 nM; that for `O=C(CCc1c(-c2ccc(F)cc2)[nH]c2c(F)c(F)ccc12)N[C@H]1CCNC1=O`, 250 nM. Regarding `Cc1cc(F)ccc1-c1[nH]c2ccccc2c1CCC(=O)N[C@@H]1C(=O)NC[C@H]1O`, the IC50 worked out at 250 nM. In turn, `Cc1c(F)ccc2c(CCC(=O)N[C@@H]3C(=O)NC[C@H]3O)c(-c3ccccc3)[nH]c12` had an IC50 below 250 nM. The compound `CC(C)c1cccc2c(CCC(=O)N[C@@H]3C(=O)NC[C@H]3O)c(-c3ccccc3)[nH]c12` displayed an IC50 of 250 nM.

For `C=C(C)c1cccc2c(CCC(=O)N[C@@H]3C(=O)NC[C@H]3O)c(-c3ccccc3)[nH]c12`, the IC50 was found to be 250 nM.

For the compound `O=C(CCc1c(-c2ccc(F)cc2)[nH]c2c(Cl)cc(F)cc12)N[C@H]1CCNC1=O`, the IC50 was below 250 nM. Consider `C[C@H]1CNC(=O)[C@H]1NC(=O)CCc1c(-c2ccc(F)cc2)[nH]c2c(F)cc(F)cc12`, for which the half-inhibitory concentration (IC50) was above 1000 nM. Turning to `C[C@@H](Cc1c(-c2ccc(F)cc2)[nH]c2c(F)cc(F)cc12)C(=O)N[C@H]1CCNC1=O`, the IC50 is above 1000 nM.

On to `O=C(CCc1c(-c2ccccc2)[nH]c2c(F)cc(F)cc12)N[C@H]1CCNC1=O`, for which the IC50 was below 250 nM.

Turning to `O=C(CCc1c(-c2ccccc2)[nH]c2c(Cl)cc(F)cc12)N[C@@H]1C(=O)NC[C@H]1O`, the IC50 was below 250 nM. With `Cc1ccc(-c2[nH]c3c(F)cc(F)cc3c2CCC(=O)N[C@@H]2C(=O)NC[C@H]2O)cc1`, the IC50 is below 250 nM. The same measure for `O=C(CCc1c(-c2ccccc2)[nH]c2c(C3CC3)cccc12)N[C@@H]1C(=O)NC[C@H]1O`: below 250 nM; for `O=C(CCc1c(-c2ccc(F)cc2)[nH]c2ccccc12)N[C@H]1C(=O)NC[C@H]1O`: 250 nM. As for `O=C(CCc1c(-c2ccccc2)[nH]c2c(Cl)cccc12)N[C@@H]1C(=O)NC[C@H]1O`, the IC50 is below 250 nM. The result for `Cc1cccc2c(CCC(=O)N[C@@H]3C(=O)NC[C@H]3O)c(-c3ccc(F)cc3)[nH]c12` reads below 250 nM; that for `Cc1ccc(-c2[nH]c3c(F)cc(F)cc3c2CCC(=O)N[C@H]2CCNC2=O)cc1`, below 250 nM; that for `O=C(CCc1c(-c2ccc(F)cc2)[nH]c2c(F)cc(OC(F)F)cc12)N[C@@H]1C(=O)NC[C@H]1O`, below 250 nM.

In the case of `COc1cccc2c(CCC(=O)N[C@H]3CCNC3=O)c(-c3ccc(F)cc3)[nH]c12`, the IC50 was above 1000 nM.

`O=C(CCc1c(-c2ccc(F)cc2)[nH]c2c(F)cc(F)cc12)N[C@H]1C[C@H](CF)NC1=O` came in with an IC50 above 1000 nM. For the compound `O=C(CCc1c(-c2ccc(F)cc2)[nH]c2ccccc12)N[C@H]1C(=O)NC[C@@H]1O`, the IC50 is above 1000 nM. Regarding `O=C1NC[C@@H](O)[C@@H]1NC(=O)[C@@H](O)Cc1c(-c2ccc(F)cc2)[nH]c2c(F)cc(F)cc12`, the IC50 is above 1000 nM. Compound `C=Cc1cccc2c(CCC(=O)N[C@@H]3C(=O)NC[C@H]3O)c(-c3ccccc3)[nH]c12` yielded an IC50 below 250 nM. The same measure for `O=C(CCc1c(-c2ccccc2)[nH]c2c(C3CCOC3)cccc12)N[C@@H]1C(=O)NC[C@H]1O` (stereo partly specified): 250 nM. As to `O=C(CCc1c(-c2ccccc2)[nH]c2c(C(F)(F)F)cc(F)cc12)N[C@@H]1C(=O)NC[C@H]1O`, the IC50 is below 250 nM. On to `CC(=O)O[C@@H]1CNC(=O)[C@H]1NC(=O)CCc1c(-c2ccc(F)cc2)[nH]c2c(F)cc(F)cc12`, for which the IC50 is above 1000 nM. `O=C(CCc1c(-c2ccc(F)cc2)[nH]c2c(F)cc(Cl)cc12)N[C@@H]1CCNC1=O` registered an IC50 of 250 nM.

`O=C(CCc1c(-c2ccc(F)cc2)[nH]c2c(F)cc(F)cc12)N[C@H]1C(=O)NC[C@H]1O`: 250 nM corresponded to half-maximal inhibition (IC50).

On to `O=C(CCc1c(-c2ccc(Cl)cc2)[nH]c2c(Cl)cccc12)N[C@@H]1C(=O)NC[C@H]1O`, for which the IC50 was below 250 nM. The same measure for `CC(C)(O)c1cccc2c(CCC(=O)N[C@@H]3C(=O)NC[C@H]3O)c(-c3ccccc3)[nH]c12`: 250 nM; for `Cc1cc(F)cc2c(CCC(=O)N[C@H]3CCNC3=O)c(-c3ccc(F)cc3)[nH]c12`: below 250 nM; for `Cc1cc(F)c2[nH]c(-c3ccc(F)cc3)c(CCC(=O)N[C@H]3CCNC3=O)c2c1`: 250 nM. Regarding `O=C(CCc1c(-c2ccc(F)cc2)[nH]c2c(C(F)F)cc(F)cc12)N[C@@H]1C(=O)NC[C@H]1O`, the IC50 was below 250 nM. `Cc1ccc(-c2[nH]c3c(F)cc(F)cc3c2CCC(=O)N[C@@H]2CCNC2=O)cc1` came in with a concentration for half-maximal inhibition (IC50) below 250 nM. Compound `N#Cc1cccc(-c2[nH]c3ccc(F)cc3c2CCC(=O)N[C@H]2CCNC2=O)c1` had an IC50 above 1000 nM. Take `O=C(CCc1c(-c2ccc(F)cc2)[nH]c2c(C(F)(F)F)cccc12)N[C@@H]1C(=O)NC[C@H]1O`: the IC50 is below 250 nM.
